Organism: Rattus norvegicus
Assay: Open TG-GATES - Regimen: Single
Type: toxicity, organism-based, Sprague-Dawley
Design: regimen Single, gender Male, age 6 weeks
Conditions: in vivo, po, route gavage; for gamma-GTP / ALP / AST / BUN / CRE / Ca / Cl / DBIL / GLC / IP / K / LDH / Na / PL / RALB / TBIL / TC / TG / TP: tissue Plasma; for APTT / Bas / Eos / Fbg / Ht / MCH / MCHC / MCV / Mono / PT / Plat / RBC / Ret / WBC: tissue Blood; for KIDNEY_L / KIDNEY_R / KIDNEY_TOTAL: tissue Kidney; for LIVER: tissue Liver

For `CC(=O)Nc1nnc(S(N)(=O)=O)s1` [ACETAZOLAMIDE], the gamma-GTP (0 mg/kg, 24 h, dose level Control) was 2.2 IU/L, the TERMINAL_BW (60 mg/kg, 3 h, dose level Low) was 208.4 g and the APTT (60 mg/kg, 3 h, dose level Low) was 22.2 s. For the same compound, the Bas (60 mg/kg, 3 h, dose level Low) was 0%, the Eos (60 mg/kg, 3 h, dose level Low) was 1% and the Fbg (60 mg/kg, 3 h, dose level Low) was 313.4 mg/dL. For the same compound, the Ht (60 mg/kg, 3 h, dose level Low) was 40.8%, the MCH (60 mg/kg, 3 h, dose level Low) was 21.4 pg and the MCHC (60 mg/kg, 3 h, dose level Low) was 32.1%. The MCV (60 mg/kg, 3 h, dose level Low) was 66.9 fL, the Mono (60 mg/kg, 3 h, dose level Low) was 1.6% and the PT (60 mg/kg, 3 h, dose level Low) was 16.8 s. For the same compound, the Plat (60 mg/kg, 3 h, dose level Low) was 125.7 x10_4/uL, the RBC (60 mg/kg, 3 h, dose level Low) was 610.4 x10_4/ul and the Ret (60 mg/kg, 3 h, dose level Low) was 8.6%. For the same compound, the WBC (60 mg/kg, 3 h, dose level Low) was 69.8 x10_2/uL, the KIDNEY_L (60 mg/kg, 3 h, dose level Low) was 0.9 g and the KIDNEY_R (60 mg/kg, 3 h, dose level Low) was 1 g. The KIDNEY_TOTAL (60 mg/kg, 3 h, dose level Low) was 1.9 g, the LIVER (60 mg/kg, 3 h, dose level Low) was 9.5 g and the ALP (60 mg/kg, 3 h, dose level Low) was 1527.8 IU/L. The AST (60 mg/kg, 3 h, dose level Low) was 75.8 IU/L, the BUN (60 mg/kg, 3 h, dose level Low) was 12.2 mg/dL and the CRE (60 mg/kg, 3 h, dose level Low) was 0.2 mg/dL. For the same compound, the Ca (60 mg/kg, 3 h, dose level Low) was 11.1 mg/dL, the Cl (60 mg/kg, 3 h, dose level Low) was 111.6 meq/L and the DBIL (60 mg/kg, 3 h, dose level Low) was 0 mg/dL. It also gave a GLC (60 mg/kg, 3 h, dose level Low) of 184.6 mg/dL, an IP (60 mg/kg, 3 h, dose level Low) of 9.6 mg/dL and a K (60 mg/kg, 3 h, dose level Low) of 3.9 meq/L. It also gave an LDH (60 mg/kg, 3 h, dose level Low) of 212.8 IU/L, a Na (60 mg/kg, 3 h, dose level Low) of 141.4 meq/L and a PL (60 mg/kg, 3 h, dose level Low) of 142.2 mg/dL. It also gave an RALB (60 mg/kg, 3 h, dose level Low) of 3.4 g/dL, a TBIL (60 mg/kg, 3 h, dose level Low) of 0.018 mg/dL and a TC (60 mg/kg, 3 h, dose level Low) of 88 mg/dL. For the same compound, the TG (60 mg/kg, 3 h, dose level Low) was 28.2 mg/dL, the TP (60 mg/kg, 3 h, dose level Low) was 5.9 g/dL and the gamma-GTP (60 mg/kg, 3 h, dose level Low) was 1.4 IU/L. For the same compound, the TERMINAL_BW (60 mg/kg, 6 h, dose level Low) was 202.8 g, the APTT (60 mg/kg, 6 h, dose level Low) was 23 s and the Bas (60 mg/kg, 6 h, dose level Low) was 0%. The Eos (60 mg/kg, 6 h, dose level Low) was 1%, the Fbg (60 mg/kg, 6 h, dose level Low) was 336.6 mg/dL and the Ht (60 mg/kg, 6 h, dose level Low) was 42.5%. The MCH (60 mg/kg, 6 h, dose level Low) was 20.9 pg, the MCV (60 mg/kg, 6 h, dose level Low) was 65.6 fL and the Mono (60 mg/kg, 6 h, dose level Low) was 3%. It also gave a PT (60 mg/kg, 6 h, dose level Low) of 16.8 s, a Plat (60 mg/kg, 6 h, dose level Low) of 120.9 x10_4/uL and an RBC (60 mg/kg, 6 h, dose level Low) of 648 x10_4/ul. For the same compound, the Ret (60 mg/kg, 6 h, dose level Low) was 8.7%, the WBC (60 mg/kg, 6 h, dose level Low) was 98.5 x10_2/uL and the KIDNEY_L (60 mg/kg, 6 h, dose level Low) was 0.9 g. It also gave a KIDNEY_R (60 mg/kg, 6 h, dose level Low) of 0.9 g, a KIDNEY_TOTAL (60 mg/kg, 6 h, dose level Low) of 1.8 g and an LIVER (60 mg/kg, 6 h, dose level Low) of 8.4 g. It also gave an ALP (60 mg/kg, 6 h, dose level Low) of 1445.8 IU/L, an AST (60 mg/kg, 6 h, dose level Low) of 72.8 IU/L and a BUN (60 mg/kg, 6 h, dose level Low) of 11.8 mg/dL. For the same compound, the CRE (60 mg/kg, 6 h, dose level Low) was 0.2 mg/dL, the Ca (60 mg/kg, 6 h, dose level Low) was 11 mg/dL and the Cl (60 mg/kg, 6 h, dose level Low) was 113 meq/L. For the same compound, the DBIL (60 mg/kg, 6 h, dose level Low) was 0 mg/dL, the GLC (60 mg/kg, 6 h, dose level Low) was 187.4 mg/dL and the IP (60 mg/kg, 6 h, dose level Low) was 9.6 mg/dL. The K (60 mg/kg, 6 h, dose level Low) was 4.2 meq/L, the LDH (60 mg/kg, 6 h, dose level Low) was 177.4 IU/L and the Na (60 mg/kg, 6 h, dose level Low) was 139.4 meq/L. The PL (60 mg/kg, 6 h, dose level Low) was 138.2 mg/dL, the RALB (60 mg/kg, 6 h, dose level Low) was 3.3 g/dL and the TBIL (60 mg/kg, 6 h, dose level Low) was 0.024 mg/dL. For the same compound, the TC (60 mg/kg, 6 h, dose level Low) was 83 mg/dL, the TG (60 mg/kg, 6 h, dose level Low) was 27.2 mg/dL and the TP (60 mg/kg, 6 h, dose level Low) was 5.9 g/dL. The gamma-GTP (60 mg/kg, 6 h, dose level Low) was 1 IU/L, the TERMINAL_BW (60 mg/kg, 9 h, dose level Low) was 205.8 g and the APTT (60 mg/kg, 9 h, dose level Low) was 21.4 s. For the same compound, the Bas (60 mg/kg, 9 h, dose level Low) was 0%, the Eos (60 mg/kg, 9 h, dose level Low) was 0.8% and the Fbg (60 mg/kg, 9 h, dose level Low) was 337.8 mg/dL. For the same compound, the Ht (60 mg/kg, 9 h, dose level Low) was 41.7%, the MCH (60 mg/kg, 9 h, dose level Low) was 20.5 pg and the MCHC (60 mg/kg, 9 h, dose level Low) was 31.4%. It also gave an MCV (60 mg/kg, 9 h, dose level Low) of 65.2 fL, a Mono (60 mg/kg, 9 h, dose level Low) of 1.8% and a PT (60 mg/kg, 9 h, dose level Low) of 16.7 s. For the same compound, the Plat (60 mg/kg, 9 h, dose level Low) was 125.8 x10_4/uL, the RBC (60 mg/kg, 9 h, dose level Low) was 640.2 x10_4/ul and the Ret (60 mg/kg, 9 h, dose level Low) was 8.7%. It also gave a WBC (60 mg/kg, 9 h, dose level Low) of 76.9 x10_2/uL, a KIDNEY_L (60 mg/kg, 9 h, dose level Low) of 0.9 g and a KIDNEY_R (60 mg/kg, 9 h, dose level Low) of 0.9 g. The KIDNEY_TOTAL (60 mg/kg, 9 h, dose level Low) was 1.8 g, the LIVER (60 mg/kg, 9 h, dose level Low) was 8.5 g and the ALP (60 mg/kg, 9 h, dose level Low) was 1425.8 IU/L. It also gave an AST (60 mg/kg, 9 h, dose level Low) of 59.8 IU/L, a BUN (60 mg/kg, 9 h, dose level Low) of 13.8 mg/dL and a CRE (60 mg/kg, 9 h, dose level Low) of 0.2 mg/dL. The Ca (60 mg/kg, 9 h, dose level Low) was 11.1 mg/dL, the Cl (60 mg/kg, 9 h, dose level Low) was 112.8 meq/L and the DBIL (60 mg/kg, 9 h, dose level Low) was 0 mg/dL. For the same compound, the GLC (60 mg/kg, 9 h, dose level Low) was 190.8 mg/dL, the IP (60 mg/kg, 9 h, dose level Low) was 9.5 mg/dL and the K (60 mg/kg, 9 h, dose level Low) was 4 meq/L. For the same compound, the LDH (60 mg/kg, 9 h, dose level Low) was 158.2 IU/L, the Na (60 mg/kg, 9 h, dose level Low) was 140 meq/L and the PL (60 mg/kg, 9 h, dose level Low) was 133.4 mg/dL. The RALB (60 mg/kg, 9 h, dose level Low) was 3.3 g/dL, the TBIL (60 mg/kg, 9 h, dose level Low) was 0.026 mg/dL and the TC (60 mg/kg, 9 h, dose level Low) was 81.8 mg/dL. It also gave a TG (60 mg/kg, 9 h, dose level Low) of 35.4 mg/dL, a TP (60 mg/kg, 9 h, dose level Low) of 5.9 g/dL and a gamma-GTP (60 mg/kg, 9 h, dose level Low) of 1 IU/L. It also gave a TERMINAL_BW (60 mg/kg, 24 h, dose level Low) of 217.9 g, an APTT (60 mg/kg, 24 h, dose level Low) of 20.2 s and a Bas (60 mg/kg, 24 h, dose level Low) of 0%. The Eos (60 mg/kg, 24 h, dose level Low) was 0.8%, the Fbg (60 mg/kg, 24 h, dose level Low) was 303.8 mg/dL and the Ht (60 mg/kg, 24 h, dose level Low) was 40.5%. It also gave an MCH (60 mg/kg, 24 h, dose level Low) of 20.9 pg, an MCHC (60 mg/kg, 24 h, dose level Low) of 33.3% and an MCV (60 mg/kg, 24 h, dose level Low) of 62.6 fL. The Mono (60 mg/kg, 24 h, dose level Low) was 1.6%, the PT (60 mg/kg, 24 h, dose level Low) was 16.7 s and the Plat (60 mg/kg, 24 h, dose level Low) was 117.7 x10_4/uL. For the same compound, the RBC (60 mg/kg, 24 h, dose level Low) was 647 x10_4/ul, the Ret (60 mg/kg, 24 h, dose level Low) was 7.7% and the WBC (60 mg/kg, 24 h, dose level Low) was 86.4 x10_2/uL. The KIDNEY_L (60 mg/kg, 24 h, dose level Low) was 0.9 g, the KIDNEY_R (60 mg/kg, 24 h, dose level Low) was 1 g and the KIDNEY_TOTAL (60 mg/kg, 24 h, dose level Low) was 1.9 g. For the same compound, the LIVER (60 mg/kg, 24 h, dose level Low) was 9.8 g, the ALP (60 mg/kg, 24 h, dose level Low) was 1708.2 IU/L and the AST (60 mg/kg, 24 h, dose level Low) was 61.2 IU/L. For the same compound, the BUN (60 mg/kg, 24 h, dose level Low) was 20 mg/dL, the CRE (60 mg/kg, 24 h, dose level Low) was 0.1 mg/dL and the Ca (60 mg/kg, 24 h, dose level Low) was 10.9 mg/dL. It also gave a Cl (60 mg/kg, 24 h, dose level Low) of 106.8 meq/L, a DBIL (60 mg/kg, 24 h, dose level Low) of 0 mg/dL and a GLC (60 mg/kg, 24 h, dose level Low) of 179.4 mg/dL. It also gave an IP (60 mg/kg, 24 h, dose level Low) of 7.5 mg/dL, a K (60 mg/kg, 24 h, dose level Low) of 4 meq/L and an LDH (60 mg/kg, 24 h, dose level Low) of 156.8 IU/L. It also gave a Na (60 mg/kg, 24 h, dose level Low) of 142.6 meq/L, a PL (60 mg/kg, 24 h, dose level Low) of 136.2 mg/dL and an RALB (60 mg/kg, 24 h, dose level Low) of 3.2 g/dL. It also gave a TBIL (60 mg/kg, 24 h, dose level Low) of 0.01 mg/dL, a TC (60 mg/kg, 24 h, dose level Low) of 73.2 mg/dL and a TG (60 mg/kg, 24 h, dose level Low) of 109.6 mg/dL.
